Drawing on ChEMBL document CHEMBL5291721, “A preclinical secondary pharmacology resource illuminates target-adverse drug reaction associations of marketed drugs” (Nat Commun, 2023), this text covers AC50 for eight molecules.

As usually defined, the AC50 is the midpoint of the concentration-response curve, whichever way the signal moves.

Assay [1] has as its target T1, Adenosine receptor A3 (Homo sapiens, UniProt P0DMS8).
T1 sequence (P0DMS8 whole entry): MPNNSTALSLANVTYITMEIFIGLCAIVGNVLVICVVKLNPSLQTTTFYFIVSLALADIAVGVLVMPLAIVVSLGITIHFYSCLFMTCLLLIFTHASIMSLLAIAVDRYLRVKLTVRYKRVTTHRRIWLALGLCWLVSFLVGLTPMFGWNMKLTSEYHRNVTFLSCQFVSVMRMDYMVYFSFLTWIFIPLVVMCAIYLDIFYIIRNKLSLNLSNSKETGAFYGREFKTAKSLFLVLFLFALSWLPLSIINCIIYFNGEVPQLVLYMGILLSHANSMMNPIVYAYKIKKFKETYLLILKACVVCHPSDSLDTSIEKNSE

Assay [2] has as its target T2, Alpha-2A adrenergic receptor (Homo sapiens, UniProt P08913).
T2 sequence (P08913 whole entry): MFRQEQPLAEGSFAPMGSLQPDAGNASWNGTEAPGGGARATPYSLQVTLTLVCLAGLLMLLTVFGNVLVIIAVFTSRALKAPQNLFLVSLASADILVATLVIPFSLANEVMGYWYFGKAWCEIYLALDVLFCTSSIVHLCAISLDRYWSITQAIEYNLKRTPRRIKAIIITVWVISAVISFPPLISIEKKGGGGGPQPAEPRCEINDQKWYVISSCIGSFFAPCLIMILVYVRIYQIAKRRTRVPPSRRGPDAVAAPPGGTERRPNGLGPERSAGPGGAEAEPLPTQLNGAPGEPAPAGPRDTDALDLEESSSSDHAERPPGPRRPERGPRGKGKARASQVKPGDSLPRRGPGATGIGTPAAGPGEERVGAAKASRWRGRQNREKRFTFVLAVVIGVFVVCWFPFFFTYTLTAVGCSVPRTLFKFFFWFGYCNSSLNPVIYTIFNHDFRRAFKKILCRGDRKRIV

For assay [3], the target named is T3, Thromboxane A2 receptor (Homo sapiens, UniProt P21731).
T3 sequence (P21731 whole entry): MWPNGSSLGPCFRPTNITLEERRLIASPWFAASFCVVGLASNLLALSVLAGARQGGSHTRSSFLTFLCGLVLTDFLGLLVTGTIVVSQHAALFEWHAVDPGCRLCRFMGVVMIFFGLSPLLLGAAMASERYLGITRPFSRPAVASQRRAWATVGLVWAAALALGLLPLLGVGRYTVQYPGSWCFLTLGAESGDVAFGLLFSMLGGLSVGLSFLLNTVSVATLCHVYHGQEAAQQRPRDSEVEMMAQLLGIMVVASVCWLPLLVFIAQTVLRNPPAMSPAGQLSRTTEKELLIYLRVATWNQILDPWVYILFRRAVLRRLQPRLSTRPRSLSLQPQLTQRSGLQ
The assay is classed as functional, cell-based.

The target of assay [4] is Sodium-dependent dopamine transporter (Homo sapiens, UniProt Q01959).
Sodium-dependent dopamine transporter, sequence (Q01959 whole entry): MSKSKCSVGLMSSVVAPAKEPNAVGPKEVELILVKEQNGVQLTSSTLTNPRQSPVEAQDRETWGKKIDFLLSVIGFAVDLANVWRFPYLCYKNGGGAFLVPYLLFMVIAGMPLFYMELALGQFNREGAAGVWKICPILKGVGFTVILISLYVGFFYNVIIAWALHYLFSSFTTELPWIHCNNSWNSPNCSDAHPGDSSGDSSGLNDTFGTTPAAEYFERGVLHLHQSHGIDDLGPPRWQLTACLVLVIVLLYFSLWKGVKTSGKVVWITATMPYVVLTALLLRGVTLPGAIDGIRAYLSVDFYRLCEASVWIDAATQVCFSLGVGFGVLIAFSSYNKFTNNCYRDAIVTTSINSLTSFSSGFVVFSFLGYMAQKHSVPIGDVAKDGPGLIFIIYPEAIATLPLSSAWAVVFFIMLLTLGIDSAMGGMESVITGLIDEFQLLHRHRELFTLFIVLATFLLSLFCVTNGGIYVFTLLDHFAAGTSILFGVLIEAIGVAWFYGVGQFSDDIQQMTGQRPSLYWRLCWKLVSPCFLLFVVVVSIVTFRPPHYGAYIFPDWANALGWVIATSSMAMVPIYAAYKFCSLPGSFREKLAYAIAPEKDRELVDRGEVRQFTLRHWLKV
For assay [5], the target named is 3',5'-cyclic-AMP phosphodiesterase 4A (Homo sapiens, UniProt P27815). The assay is classed as functional.
3',5'-cyclic-AMP phosphodiesterase 4A, sequence (P27815 whole entry): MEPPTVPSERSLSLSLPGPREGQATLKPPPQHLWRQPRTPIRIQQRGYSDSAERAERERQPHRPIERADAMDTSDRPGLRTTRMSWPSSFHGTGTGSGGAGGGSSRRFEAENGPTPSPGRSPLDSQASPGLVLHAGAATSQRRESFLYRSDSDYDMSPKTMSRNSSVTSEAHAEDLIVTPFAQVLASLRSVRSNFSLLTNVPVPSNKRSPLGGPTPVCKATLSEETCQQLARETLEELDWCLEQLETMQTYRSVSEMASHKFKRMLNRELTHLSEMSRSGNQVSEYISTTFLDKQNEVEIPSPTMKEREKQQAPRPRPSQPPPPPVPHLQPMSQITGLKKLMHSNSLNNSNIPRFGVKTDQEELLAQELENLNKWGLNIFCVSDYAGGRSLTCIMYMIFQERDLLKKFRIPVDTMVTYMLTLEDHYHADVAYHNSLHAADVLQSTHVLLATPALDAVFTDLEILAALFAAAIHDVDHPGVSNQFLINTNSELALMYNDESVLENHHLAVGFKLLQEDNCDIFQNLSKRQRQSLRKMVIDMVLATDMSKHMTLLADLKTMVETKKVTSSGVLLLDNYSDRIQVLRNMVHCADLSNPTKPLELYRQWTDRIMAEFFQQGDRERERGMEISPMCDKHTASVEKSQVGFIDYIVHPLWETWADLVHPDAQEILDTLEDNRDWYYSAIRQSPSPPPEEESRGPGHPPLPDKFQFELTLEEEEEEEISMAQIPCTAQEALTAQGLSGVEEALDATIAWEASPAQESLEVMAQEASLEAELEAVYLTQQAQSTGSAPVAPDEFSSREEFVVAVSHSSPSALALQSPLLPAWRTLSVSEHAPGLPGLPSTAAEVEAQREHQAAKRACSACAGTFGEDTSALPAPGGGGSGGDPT
The target of assay [6] is T4, Estrogen receptor (Homo sapiens, UniProt P03372).
T4 sequence (P03372 whole entry): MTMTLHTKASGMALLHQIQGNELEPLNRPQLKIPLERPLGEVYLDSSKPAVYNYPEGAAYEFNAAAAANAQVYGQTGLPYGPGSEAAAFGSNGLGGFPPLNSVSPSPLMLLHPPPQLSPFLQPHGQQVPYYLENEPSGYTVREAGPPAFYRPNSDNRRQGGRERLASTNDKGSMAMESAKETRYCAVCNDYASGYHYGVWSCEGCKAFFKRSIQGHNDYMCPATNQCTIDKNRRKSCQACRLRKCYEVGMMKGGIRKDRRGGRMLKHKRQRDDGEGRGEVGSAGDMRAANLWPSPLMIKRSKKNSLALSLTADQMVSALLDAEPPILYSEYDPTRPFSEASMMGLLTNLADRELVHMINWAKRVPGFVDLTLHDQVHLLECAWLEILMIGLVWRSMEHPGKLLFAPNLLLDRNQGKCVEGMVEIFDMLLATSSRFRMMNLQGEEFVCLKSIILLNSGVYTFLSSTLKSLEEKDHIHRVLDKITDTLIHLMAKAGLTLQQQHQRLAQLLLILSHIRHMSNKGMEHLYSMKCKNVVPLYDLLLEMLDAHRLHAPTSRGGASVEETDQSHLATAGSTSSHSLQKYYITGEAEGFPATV

Assay [7] has as its target D(1A) dopamine receptor (Homo sapiens, UniProt P21728).
Assay [8] deals with Mu-type opioid receptor (Homo sapiens, UniProt P35372).
Mu-type opioid receptor, sequence (P35372 whole entry): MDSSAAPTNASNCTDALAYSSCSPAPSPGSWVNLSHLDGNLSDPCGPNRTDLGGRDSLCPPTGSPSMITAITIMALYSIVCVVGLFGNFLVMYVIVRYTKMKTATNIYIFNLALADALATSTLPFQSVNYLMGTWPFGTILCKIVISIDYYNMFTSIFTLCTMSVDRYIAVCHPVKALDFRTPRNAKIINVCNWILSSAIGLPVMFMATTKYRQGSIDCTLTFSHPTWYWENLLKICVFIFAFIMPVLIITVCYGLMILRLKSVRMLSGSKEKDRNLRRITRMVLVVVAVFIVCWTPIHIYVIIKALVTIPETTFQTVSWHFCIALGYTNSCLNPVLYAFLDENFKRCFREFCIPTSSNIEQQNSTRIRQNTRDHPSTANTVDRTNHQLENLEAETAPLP
Assay [9] concerns the target Voltage-gated inwardly rectifying potassium channel KCNH2 (Homo sapiens, UniProt Q12809). The assay is classed as functional. The note with it: read-out: AC50.
Assay [10] addresses T5, 5-hydroxytryptamine receptor 1A (Homo sapiens, UniProt P08908).
T5 sequence (P08908 whole entry): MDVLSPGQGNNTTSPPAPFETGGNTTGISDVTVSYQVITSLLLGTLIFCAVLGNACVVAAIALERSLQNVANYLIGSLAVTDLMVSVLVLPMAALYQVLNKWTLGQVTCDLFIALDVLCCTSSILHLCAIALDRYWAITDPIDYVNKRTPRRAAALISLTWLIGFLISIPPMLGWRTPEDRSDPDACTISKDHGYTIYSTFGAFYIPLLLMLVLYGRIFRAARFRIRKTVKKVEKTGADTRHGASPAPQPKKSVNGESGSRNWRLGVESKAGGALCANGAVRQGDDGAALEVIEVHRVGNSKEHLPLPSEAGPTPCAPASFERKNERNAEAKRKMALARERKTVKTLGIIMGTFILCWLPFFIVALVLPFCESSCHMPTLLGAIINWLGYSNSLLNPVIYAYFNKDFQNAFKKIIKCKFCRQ

In assay [11] the target is Histamine H3 receptor (Homo sapiens, UniProt Q9Y5N1).
Assay [12] addresses D(3) dopamine receptor (Homo sapiens, UniProt P35462).
Assay [13] deals with Sodium-dependent serotonin transporter (Homo sapiens, UniProt P31645).
Sodium-dependent serotonin transporter, sequence (P31645 whole entry): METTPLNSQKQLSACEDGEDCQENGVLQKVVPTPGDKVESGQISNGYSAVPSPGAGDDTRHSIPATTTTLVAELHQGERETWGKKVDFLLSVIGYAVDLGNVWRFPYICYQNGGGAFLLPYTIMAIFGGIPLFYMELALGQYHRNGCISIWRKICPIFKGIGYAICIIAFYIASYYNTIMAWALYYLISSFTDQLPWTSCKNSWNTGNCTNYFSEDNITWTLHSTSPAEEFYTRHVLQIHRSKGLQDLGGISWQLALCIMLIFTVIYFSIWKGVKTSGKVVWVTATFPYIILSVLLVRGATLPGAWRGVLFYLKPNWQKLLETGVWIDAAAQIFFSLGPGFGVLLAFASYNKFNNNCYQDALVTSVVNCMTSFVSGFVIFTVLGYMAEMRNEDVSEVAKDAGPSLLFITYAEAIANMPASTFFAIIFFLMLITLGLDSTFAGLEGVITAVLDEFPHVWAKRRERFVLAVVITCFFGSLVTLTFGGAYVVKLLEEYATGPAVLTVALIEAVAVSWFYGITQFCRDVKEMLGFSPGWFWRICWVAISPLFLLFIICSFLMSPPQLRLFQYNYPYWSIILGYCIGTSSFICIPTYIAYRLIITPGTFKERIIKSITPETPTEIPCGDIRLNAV
Assay [14] concerns the target Prostaglandin G/H synthase 1 (Homo sapiens, UniProt P23219). The assay is classed as functional.
Assay [15] concerns the target Prothrombin (Homo sapiens, UniProt P00734). The assay is classed as functional.

Each structure is given as a SMILES string.
Also: assay procedure not described here.

Voltage-gated inwardly rectifying potassium channel KCNH2, sequence (Q12809 whole entry): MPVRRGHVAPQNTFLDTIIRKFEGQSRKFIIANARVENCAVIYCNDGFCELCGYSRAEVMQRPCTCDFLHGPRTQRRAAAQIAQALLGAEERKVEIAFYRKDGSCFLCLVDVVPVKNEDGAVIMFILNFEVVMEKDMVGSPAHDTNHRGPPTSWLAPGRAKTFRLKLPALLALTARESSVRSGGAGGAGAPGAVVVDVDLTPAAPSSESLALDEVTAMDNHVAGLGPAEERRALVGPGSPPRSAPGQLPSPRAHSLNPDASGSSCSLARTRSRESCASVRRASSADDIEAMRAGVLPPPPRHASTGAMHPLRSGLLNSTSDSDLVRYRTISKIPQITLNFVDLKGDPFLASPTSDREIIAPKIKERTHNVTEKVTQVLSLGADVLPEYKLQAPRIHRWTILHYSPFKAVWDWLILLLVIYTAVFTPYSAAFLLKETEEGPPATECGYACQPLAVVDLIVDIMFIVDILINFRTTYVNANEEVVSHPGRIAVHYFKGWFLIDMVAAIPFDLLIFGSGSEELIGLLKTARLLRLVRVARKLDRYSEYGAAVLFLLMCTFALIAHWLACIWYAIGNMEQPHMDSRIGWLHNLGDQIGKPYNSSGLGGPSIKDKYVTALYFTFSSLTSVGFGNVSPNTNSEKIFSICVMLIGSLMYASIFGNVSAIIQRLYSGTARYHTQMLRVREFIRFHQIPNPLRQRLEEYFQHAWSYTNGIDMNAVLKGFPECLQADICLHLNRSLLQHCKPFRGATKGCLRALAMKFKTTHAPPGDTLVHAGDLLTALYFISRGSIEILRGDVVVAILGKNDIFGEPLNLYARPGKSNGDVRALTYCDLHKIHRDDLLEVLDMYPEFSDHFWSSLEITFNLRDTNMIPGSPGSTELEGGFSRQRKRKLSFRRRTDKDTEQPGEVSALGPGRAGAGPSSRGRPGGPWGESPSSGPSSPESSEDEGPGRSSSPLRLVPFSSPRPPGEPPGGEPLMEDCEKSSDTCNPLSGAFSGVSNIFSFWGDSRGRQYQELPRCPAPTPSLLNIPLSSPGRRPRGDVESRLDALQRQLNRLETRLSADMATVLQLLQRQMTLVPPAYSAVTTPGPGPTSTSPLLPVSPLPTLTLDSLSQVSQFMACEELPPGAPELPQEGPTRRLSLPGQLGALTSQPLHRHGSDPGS
D(1A) dopamine receptor, sequence (P21728 whole entry): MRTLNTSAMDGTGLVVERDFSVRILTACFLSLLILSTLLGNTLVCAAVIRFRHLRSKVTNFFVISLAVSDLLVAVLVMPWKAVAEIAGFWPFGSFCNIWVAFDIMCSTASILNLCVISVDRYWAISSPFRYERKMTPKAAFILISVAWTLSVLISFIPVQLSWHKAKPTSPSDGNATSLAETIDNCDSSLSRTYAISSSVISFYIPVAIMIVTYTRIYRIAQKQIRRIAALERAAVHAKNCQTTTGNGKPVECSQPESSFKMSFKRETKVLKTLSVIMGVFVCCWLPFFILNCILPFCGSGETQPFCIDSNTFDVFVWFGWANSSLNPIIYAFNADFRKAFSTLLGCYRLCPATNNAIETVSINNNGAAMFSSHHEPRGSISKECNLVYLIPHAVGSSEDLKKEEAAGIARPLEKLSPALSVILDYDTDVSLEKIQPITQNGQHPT
Prostaglandin G/H synthase 1, sequence (P23219 whole entry): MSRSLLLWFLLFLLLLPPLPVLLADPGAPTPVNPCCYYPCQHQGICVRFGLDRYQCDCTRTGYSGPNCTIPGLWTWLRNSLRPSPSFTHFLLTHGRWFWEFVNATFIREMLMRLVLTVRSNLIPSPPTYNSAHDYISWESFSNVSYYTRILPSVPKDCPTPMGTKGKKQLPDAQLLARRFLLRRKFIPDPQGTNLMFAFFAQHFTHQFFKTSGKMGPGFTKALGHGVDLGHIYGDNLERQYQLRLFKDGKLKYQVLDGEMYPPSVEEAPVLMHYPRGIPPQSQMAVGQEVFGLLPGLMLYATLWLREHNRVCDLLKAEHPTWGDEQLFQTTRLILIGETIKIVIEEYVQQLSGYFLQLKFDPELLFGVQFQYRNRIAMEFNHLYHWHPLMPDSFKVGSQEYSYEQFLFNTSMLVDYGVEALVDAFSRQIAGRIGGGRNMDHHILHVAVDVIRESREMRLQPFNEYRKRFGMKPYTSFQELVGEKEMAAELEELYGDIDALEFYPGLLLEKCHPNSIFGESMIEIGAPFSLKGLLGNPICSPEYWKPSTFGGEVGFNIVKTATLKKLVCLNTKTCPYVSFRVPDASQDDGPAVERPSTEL

In the case of `Nc1nc(-n2cc(C(=O)O)c(=O)c3cc(F)c(N4CC(O)C4)c(Cl)c32)c(F)cc1F` [DELAFLOXACIN], the AC50 is greater than 3 µM in assay [1]; greater than 30 µM in [2]; greater than 30 µM in [3]; greater than 30 µM in assay [4]; greater than 30 µM in [5]; greater than 30 µM in assay [6]. The AC50 in assay [7] is greater than 30 µM; in assay [8], greater than 30 µM; in assay [9], greater than 30000 nM; in [10], greater than 30 µM; in [11], greater than 30 µM; in [12], greater than 30 µM. The AC50 in [13], in assay [14] and in assay [15] was greater than 30 µM in each case.

As for `C[C@@H]1C[C@H]2[C@@H]3C[C@H](F)C4=CC(=O)C=C[C@]4(C)[C@@]3(F)[C@@H](O)C[C@]2(C)[C@@]1(O)C(=O)COC(=O)C(C)(C)C` [FLUMETHASONE PIVALATE], the AC50 in assay [1], in assay [2], in assay [3], in assay [4], in [5] and in assay [6] was greater than 30 µM throughout. The AC50 is greater than 30 µM in assay [7]; greater than 30 µM in assay [8]; greater than 30000 nM in assay [9]; greater than 30 µM in assay [10]; greater than 30 µM in [11]; greater than 30 µM in assay [12]. Also, the AC50 in assay [13], in assay [14] and in assay [15] was greater than 30 µM throughout.

As for `COc1ccc(CCC(C)NCC(O)c2ccc(O)c([S+](C)[O-])c2)cc1` (stereo not given) [SULFINALOL], the AC50 in assay [1], in assay [2], in [3], in assay [4], in assay [5] and in [6] was greater than 30 µM in each case. The AC50 was greater than 30 µM in assay [7]; greater than 30 µM in [8]; greater than 30000 nM in assay [9]; 0.326 µM in assay [10]; greater than 30 µM in [11]; greater than 30 µM in [12]. Also, the concentration at half-maximal activity (AC50) is 0.866 µM in assay [13], greater than 30 µM in [14] and greater than 30 µM in assay [15].

As for `Cc1nc(-c2ccc(OCC(C)C)c(C#N)c2)sc1C(=O)O` [FEBUXOSTAT], the AC50 was greater than 30 µM in assay [1]; greater than 30 µM in [2]; greater than 30 µM in [3]; greater than 30 µM in assay [4]; 29 µM in assay [5]; greater than 30 µM in [6]. Also, the AC50 in assay [7] was greater than 30 µM; in [8], greater than 30 µM; in assay [9] it was greater than 30000 nM; in [10], greater than 30 µM; in assay [11], greater than 30 µM; in [12] it was greater than 30 µM. Further, the AC50 in assay [13], in assay [14] and in assay [15] was greater than 30 µM in each case.

Regarding `COc1ccc2c(c1)OC(C)(C)C(c1ccccc1)C2c1ccc(OCCN2CCCC2)cc1` (stereo not given) [ORMELOXIFENE], the AC50 in assay [1] is 3.66 µM; in assay [2], 10.6 µM; in [3] it was 12.2 µM; in assay [4], 3 µM; in assay [5], greater than 30 µM; in assay [6] it was 1.29 µM. The AC50 was found to be 6.98 µM in [7]; 11.2 µM in [8]; 2700 nM in assay [9]; 9.91 µM in [10]; 0.785 µM in assay [11]; 0.205 µM in [12]. Also, the AC50 in assay [13] was 13.2 µM; in assay [14] it was 4.3 µM; in assay [15], greater than 30 µM.

With `CCCC[N+]1(C)[C@@H]2C[C@@H](OC(=O)[C@H](CO)c3ccccc3)C[C@H]1[C@@H]1O[C@@H]12` (stereo not given in full) [BUTYLSCOPOLAMINE], the AC50 in [1], in assay [2], in [3], in assay [4], in assay [5] and in assay [6] was greater than 30 µM in each case. Further, the half-maximal activity concentration (AC50) in [7] was greater than 30 µM; in [8] it was greater than 30 µM; in assay [9], 2800 nM; in assay [10], greater than 30 µM; in assay [11] it was greater than 30 µM; in assay [12] it was greater than 30 µM. For the same molecule, the AC50 in [13], in assay [14] and in assay [15] was greater than 30 µM throughout.

With `O=C(NC1CCN(CCCCC2(C(=O)NCC(F)(F)F)c3ccccc3-c3ccccc32)CC1)c1ccccc1-c1ccc(C(F)(F)F)cc1` [LOMITAPIDE], the AC50 in assay [1] was 4.4 µM; in [2], 13.2 µM; in [3], greater than 1 µM; in assay [4], 0.239 µM; in assay [5], greater than 30 µM; in [6], greater than 30 µM. Besides, the AC50 in assay [7] was 1.49 µM; in assay [8], 4.02 µM; in assay [9] it was 860 nM; in assay [10], greater than 30 µM; in assay [11] it was greater than 30 µM; in assay [12] it was 1.76 µM. Further, the AC50 in assay [13], in assay [14] and in [15] was greater than 30 µM each time.

On to `Nc1ccc(C(=O)O)cc1` [AMINOBENZOIC ACID], for which the AC50 in assay [1], in [2], in assay [3], in assay [4], in assay [5] and in assay [6] was greater than 30 µM in each case. Moreover, the AC50 was greater than 30 µM in assay [7]; greater than 30 µM in assay [8]; greater than 30000 nM in assay [9]; greater than 30 µM in assay [10]; greater than 30 µM in [11]; greater than 30 µM in [12]. Further, the AC50 in assay [13] was greater than 30 µM; in assay [14], 2.18 µM; in assay [15], greater than 30 µM.
